Results: ChEMBL document CHEMBL1158222, “Antiinflammatory C-glucosyl chromone from Aloe barbadensis” (1996)
Calls of active or inactive are those of the source. No cut-off for these calls is given here.

Columns and labels:
[1] = species on record: Mus musculus; experiment: Antiinflammatory activity against croton oil-induced ear inflammation in BALB/c mouse at 200 ug/ear after 6 to 24 hrs; assay type: functional, organism-based
[2] = species on record: Mus musculus; experiment: Reduction in thymus weight in BALB/c mouse at 400 ug/ear; assay type: functional, organism-based
[3] = species on record: Mus musculus; experiment: Reduction in thymus weight in BALB/c mouse at 200 ug/ear; assay type: functional; design: scale not given: the % may be the effect or the level left

Structure (SMILES)	Activity [1]	Activity [2]	Activity [3]
COc1cc(C)c2c(=O)cc(C[C@@H](C)O)oc2c1[C@@H]1O[C@H](CO)[C@@H](O)[C@H](O)[C@H]1OC(=O)/C=C/c1ccccc1	Active	inactive	
C[C@]12CCC(=O)C=C1CC[C@@H]1[C@@H]2[C@@H](O)C[C@@]2(C)[C@H]1CC[C@]2(O)C(=O)CO [HYDROCORTISONE]	Active		50%
